Here are results for two compounds from patent US10011573B2, “Human androgen receptor DNA-binding domain (DBD) compounds as therapeutics and methods for their use” (The University of British Columbia, priority 2014, dated 2018).

“Also recorded” adds a separate entry of the source. Like-named read-outs stand apart in the source and are kept apart here.

For one assay, the target named is AR-V7Y594D (Homo sapiens, UniProt P10275, Y594D). Kind of assay: ARR3tk-luciferase reporter assay in PC3 cells, AR-V7 Y594D. For orientation: Reporter assays use an easily measured gene product as a stand-in for the process of interest.
For a further assay, the target named is T1, AR-DBD+hinge / ARE dsDNA (Homo sapiens, UniProt P10275).
T1 sequence (P10275 558-689): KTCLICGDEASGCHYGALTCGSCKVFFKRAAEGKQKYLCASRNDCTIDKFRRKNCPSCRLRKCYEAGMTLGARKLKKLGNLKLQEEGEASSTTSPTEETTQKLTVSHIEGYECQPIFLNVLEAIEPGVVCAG
Kind of assay: EMSA (gel shift) assay. It is filed as biochemical. Set-up: His6 (N); made in house; host or cells: E. coli BL21 (DE3). The procedure: The plasmid encoding the AR-DBD+hinge was transformed into BL21 (DE3). BL21 cells designated for expression of biotin-labeled AR-DBD+hinge were co-transformed with the Pan4 AR-DBD+hinge (ampicillin selection) and biotin ligase expression vectors (pBir-Acm, chloramphenicol selection). Single colonies were grown in 2 liters of LB media supplemented with 50 μg/ml ampicillin and 35 μg/ml chloramphenicol (where appropriate) to A600 nm=0.6 before induction with 0.1 mM isopropyl β-D-1-thiogalactopyranoside for 3 h at 37° C. Cultures expressing the AR-DBD with the biotinylation sequence were simultaneously supplemented with 0.150 mM biotin during the induction step. Cell pellets were resuspended in ˜20 ml of 50 mM Tris-HCl, pH 8.0, 300 mM NaCl, 5% glycerol (Buffer A) supplemented with 10 mM imidazole and incubated with 0.1 mg/ml chicken egg white lysozyme (Sigma™) and 0.1 mM PMSF protease inhibitor for 30 min on ice. Cell lysis was achieved by sonication, followed by centrifugation at 13,000×g for 30 min at 4° C. The supernatant was rotated with 2 ml of nickel-agarose beads (GE Healthcare™) for 1 h at 4° C. and then directly loaded onto a Poly-Prep 10-ml gravity chromatography column (Bio-Rad™). Washing was performed with 2×4 ml of Buffer A supplemented with 20 mM imidazole. Pure proteins were eluted in 500-μl fractions with 2 ml of Buffer A containing 250 mM imidazole. […]
For orientation: Mobility shift assays separate free from complexed probe on a gel.

The next assay concerns the target T2, AR-V7 (Homo sapiens, UniProt P10275).
T2 construct: expressed in transfected cells; host or cells: PC3
Kind of assay: ARR3tk-luciferase reporter assay in PC3 cells, splice variant AR-V7. It counts as cell-based. The source says:
Full-length human AR (hARWT) or splice variant (AR-V7) was encoded on a pcDNA3.1 expression plasmid.

In the next assay the test system is AR v567es. Kind of assay: ARR3tk-luciferase assay in R1-D567 cells. It counts as cell-based, human.
The next assay has as its system PSA. Kind of assay: PSA measurements, LNCaP cells, 1 nM R1881, 2 days. It is filed as cell-based, human. The procedure: Following the incubation period, 150 μl of the media was taken from each well, and PSA levels were quantified using a Cobas e411 analyzer (Roche Applied Science™) according to the manufacturer's instructions. The same instrument was used to analyze serum PSA from mice during the in vivo analysis.

The test system of another assay is PC3 cells. Kind of assay: Cell viability (MTS) assay, PC3. It is filed as cell-based, human. Particulars: 0.1 nM R1881. The method, then: 1. Cell Culture: LNCaP and PC3 human prostate cancer cells were obtained from American Type Culture Collection (ATCC, Manassas, Va.) and grown in RPMI 1640 medium supplemented with 5% fetal bovine serum (FBS) (Invitrogen). […]. All cells were maintained at 37° C. in 5% CO2.
7. Cell viability assay: The PC3, LNCaP, and MDV3100-resistant cells were plated at 3,000 cells per well in RPMI 1640 containing 5% charcoal stripped serum (CSS) in a 96-well plate, treated with 0.1 nM R1881 and compounds (0-25 μM) for 96 hrs.

T2 sequence (P10275 1-644 isoform P10275-3): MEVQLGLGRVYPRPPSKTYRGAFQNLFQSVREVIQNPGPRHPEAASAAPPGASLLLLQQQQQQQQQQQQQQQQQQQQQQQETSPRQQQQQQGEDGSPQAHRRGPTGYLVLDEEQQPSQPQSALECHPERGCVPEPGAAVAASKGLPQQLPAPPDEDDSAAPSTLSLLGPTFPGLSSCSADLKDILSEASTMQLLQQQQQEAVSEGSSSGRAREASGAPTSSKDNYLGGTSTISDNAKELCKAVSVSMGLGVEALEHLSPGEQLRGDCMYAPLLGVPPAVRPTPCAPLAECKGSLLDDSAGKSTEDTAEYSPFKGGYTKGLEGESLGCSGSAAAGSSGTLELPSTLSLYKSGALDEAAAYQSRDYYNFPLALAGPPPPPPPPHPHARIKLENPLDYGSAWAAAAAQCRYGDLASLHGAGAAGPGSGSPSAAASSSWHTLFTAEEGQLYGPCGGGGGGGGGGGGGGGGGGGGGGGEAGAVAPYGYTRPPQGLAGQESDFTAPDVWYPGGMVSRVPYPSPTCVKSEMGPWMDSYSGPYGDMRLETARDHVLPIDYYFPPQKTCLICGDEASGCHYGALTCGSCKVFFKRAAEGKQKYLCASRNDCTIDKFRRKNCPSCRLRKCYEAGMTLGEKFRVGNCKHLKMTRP
Chain of AR-V7Y594D (P10275 1-644 isoform P10275-3 Y594D): as the sequence (P10275 1-644 isoform P10275-3) above, with Y594D counted along it
Protocol for AR-V7Y594D: Cells were then treated with compounds at various concentrations and 0.1 nMR1881 (in 100% ethanol) for 24 h. […] Cell lysis was carried out with 60 μl of 1X passive lysis buffer/well (Promega™)
20 μl of cell lysate from each well were mixed with 50 μl of luciferase assay reagent (Promega™), and luminescence was recorded on a TECAN™ M200pro plate reader. Luciferase assays with splice variant AR were performed the same way but with only 5 ng of pcDNA3.1 AR-V7 (to limit the high level of AR-V7 expression) and no R1881.

As for `Brc1ncn(-c2csc(N3CCOCC3)n2)c1Br` [Compound 14449], at AR-V7Y594D, the “inhibition of AR-V7Y594D transcriptional activity” value was “could not be inhibited”. Moreover, the “protein-DNA complex formation (gel shift)” value at AR-DBD+hinge / ARE dsDNA was “could not prevent protein-DNA complex formation”. At AR-V7 (PC3 cells, no R1881), the “inhibition of AR-V7 transcriptional activity” value is given as “reduced with increasing concentrations; also recorded: inhibit the transcription of AR-V7 in a concentration-dependent manner”. Further, the “inhibition of AR v567es transcriptional activity” value with AR v567es is given as “could inhibit”. Further, the “IC50 secreted PSA” value with PSA is given as “sub-micromolar”. For the same compound, in the assay on PC3 cells, the “inhibition of cell growth, PC3 (AR-negative)” value is reported as “ineffective”.

Consider `c1ccc(-c2csc(N3CCOCC3)n2)cc1` [Compound 14228, 4-(4-phenylthiazol-2-yl)morpholine], for which the “inhibition of AR-V7Y594D transcriptional activity” value on AR-V7Y594D is given as “could not be inhibited”. In addition, the “protein-DNA complex formation (gel shift)” value at AR-DBD+hinge / ARE dsDNA is listed as “could not prevent protein-DNA complex formation”. For the same compound, the “inhibition of AR-V7 transcriptional activity” value on AR-V7 is “reduced with increasing concentrations; also recorded: inhibit the transcription of AR-V7 in a concentration-dependent manner”. The “inhibition of AR v567es transcriptional activity” value in the assay with AR v567es is recorded as “could inhibit”. The “IC50 secreted PSA” value in the assay with PSA is “sub-micromolar”. Further, the “inhibition of cell growth, PC3 (AR-negative)” value with PC3 cells was “no effect”.
